Patent publication US6642434B1, “Transgenic plants with γ-tocopherol methyltransferase” (University of Community College System of Nevada, priority 1997, dated 2003)

Tests used:
[1] = tested on: Synechocystis γ-tocopherol methyltransferase (SLR0089); assay: γ-TMT assay with Synechocystis SLR0089 protein expressed in E. coli; type: biochemical, Synechocystis PCC6803; conditions: for use as substrate (methylation) by Synechocystis γ-TMT: 5 mM substrate, pH 7.5, 14C-methyl-SAM, 30 minutes room temperature
Method: (§1) The p011698-1 and p011898-1 constructs were used to transform the E. coli T7 expression host BL21(DE3). To generate protein for γ-TMT assays, one liter cultures of transformed host cells containing one of the constructs were grown in Luria broth containing 100 mg/liter ampicillin. Each culture was started at an optical density at 600 nm (OD600) of 0.1 and incubated in a shaking incubator at 28° C. until the culture reached an OD600 of 0.6, at which time isopropyl-, β-D-thiogalactopyranoside (IPTG) was added to each culture to obtain a final concentration of 0.4 mM IPTG. Each culture was incubated for an additional 3 hours at 28° C. and the cells were harvested by centrifugation at 8,000 g. The cell pellets were then resupended in 10 ml of 10 mM HEPES (pH 7.8), 5 mM DTT, 0.24 M sorbitol, 1 mM PMSF. The cells were lysed by sonication with a micro-tip sonicator using four 10-second pulses. Triton×100 was added to each homogenate to a final concentration of 1%. The homogenates were incubated on ice for 30 minutes, and subjected to centrifugation at 30,000 g for 30 minutes at 4° C. The supernatants of these extracts were assayed for γ-tocopherol methyltransferase activity as follows.
(§2) The γ-TMT assays were performed in 250 μl volumes containing 50 mM Tris (pH 7.5 for the Synechocystis and pH 8.5 for the Arabidopsis enzyme), 5 mM DTT, 5 mM γ- or δ-tocopherol, and 0.025 μCi (55 μCi/mmole) (^14C-methyl)-S-adenosylmethionine. Reaction mixtures were incubated at room temperature for 30 minutes. The reactions were stopped by adding of 1 ml of 2:1 (v:v) CHCl3: methanol containing 1 mg/ml butylated hydroxytolulene (BHT) and 250 μl of 0.9% NaCl in water, and vortexing. The samples were centrifuged to separate the phases. The CHCl3 (lower) phase was transferred to a fresh tube containing […] of α-tocopherol and the CHCl3 was then removed under vacuum in a speed-vac. The dried lipid fraction was resuspended in 50 μl ethyl acetate containing 1 mg/ml BHT. The lipid extracts were fractionated on silica 60 TLC plates in dichloromethane. Tocopherols were then identified by co-migration with authentic tocopherol standards after staining the plate with Emmerie-Engels solution (0.1% FeCl3, 0.25% 2,2′-dipyridyl in ethanol). The band corresponding to α-tocopherol was scraped from the TLC plate and the amount of radioactive material present was determined by scintillation counting.
(§3) The Synechocystis and Arabidopsis γ-tocopherol methyltransferases were tested for activity using several different methyl-substituted tocopherol substrates. […] The two enzymes were unable to use tocol, 5,7-diemethyltocol, β-tocopherol, and γ-tocotrienol as substrates. […] The Synechocystis and Arabidopsis γ-TMTs appear to require substrates with a methyl-group present on the 8 position of the chromanol ring and a fully saturated prenyl-tail for activity.

[2] = target: T1, Arabidopsis γ-tocopherol methyltransferase (165H5T7) (Arabidopsis thaliana, UniProt Q9ZSK1); assay: γ-TMT assay with Arabidopsis 165H5T7 protein expressed in E. coli; type: biochemical; conditions: for use as substrate (methylation) by Arabidopsis γ-TMT: 5 mM substrate, pH 8.5, 14C-methyl-SAM, 30 minutes room temperature
T1 construct: made in house; host or cells: E. coli BL21(DE3), pET3D vector; Triton X-100 supernatant of the lysate
T1 sequence (Q9ZSK1 51-348): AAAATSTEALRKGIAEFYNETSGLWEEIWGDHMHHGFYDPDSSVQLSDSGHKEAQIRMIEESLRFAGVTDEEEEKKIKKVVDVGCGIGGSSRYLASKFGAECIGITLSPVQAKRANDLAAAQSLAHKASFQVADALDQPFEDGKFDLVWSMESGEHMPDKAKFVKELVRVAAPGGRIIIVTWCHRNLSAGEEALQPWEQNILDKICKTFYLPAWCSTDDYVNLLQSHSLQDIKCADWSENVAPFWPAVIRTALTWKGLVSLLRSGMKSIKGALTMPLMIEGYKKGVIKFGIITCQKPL
Method: as §1, §2, §3

| SMILES | use as substrate (methylation) by Synechocystis γ-TMT [1] | use as substrate (methylation) by Arabidopsis γ-TMT [2] | relative activity of Synechocystis γ-TMT toward γ- and δ-tocopherol [1] | relative activity of Arabidopsis γ-TMT toward γ- and δ-tocopherol [2] |
| --- | --- | --- | --- | --- |
| Cc1cc2c(c(C)c1O)CCC(C)(CCCC(C)CCCC(C)CCCC(C)C)O2 (stereo not shown) [5,7-diemethyltocol] | unable to use | unable to use |  |  |
| CC(C)CCCC(C)CCCC(C)CCCC1(C)CCc2cc(O)ccc2O1 (stereo not shown) [tocol] | unable to use | unable to use |  |  |
| Cc1cc(O)c(C)c2c1O[C@](C)(CCC[C@H](C)CCC[C@H](C)CCCC(C)C)CC2 [β-tocopherol] | unable to use | unable to use |  |  |
| Cc1c(O)cc2c(c1C)O[C@](C)(CCC[C@H](C)CCC[C@H](C)CCCC(C)C)CC2 [γ-tocopherol] | able to convert γ-tocopherol to α-tocopherol | able to convert γ-tocopherol to α-tocopherol | equally active toward γ-tocopherol and δ-tocopherol | greater activity with γ-tocopherol as the substrate than with the δ-tocopherol substrate |
| CC(C)=CCC/C(C)=C/CC/C(C)=C/CC[C@]1(C)CCc2cc(O)c(C)c(C)c2O1 [γ-tocotrienol] | unable to use | unable to use |  |  |
| Cc1cc(O)cc2c1O[C@](C)(CCC[C@H](C)CCC[C@H](C)CCCC(C)C)CC2 [δ-tocopherol] | able to specifically convert δ-tocopherol to β-tocopherol | able to specifically convert δ-tocopherol to β-tocopherol | equally active toward γ-tocopherol and δ-tocopherol | greater activity with γ-tocopherol as the substrate than with the δ-tocopherol substrate |
